In assay [1] the test system is H460 (NRF2 pathway mutant cell line with high AKR1C3 expression). As to the kind of experiment: In vitro cell proliferation assay (CellTiter-Glo), H460. In kind it is cell-based. The settings on record: Homo sapiens, NCI-H460, 72 h; H460 cells, 3 days, CellTiter-Glo, top concentration 10 μM; read-out: H460 Qualified absolute AC50. In short, it runs like this: (§1)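 Cells seeded day 1 (H460 800/well, Hara 2000/well) in RPMI-1640 with 10% FBS; compounds added day 2 as 8-point 1:5 dilutions from 10 μM top. After 3 days at 37 °C, viability read by CellTiter-Glo luminescence, normalized to DMSO and MG132 (30 μM) controls to derive percentage activity and AC50.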
In general terms: In ATP-based viability assays light output follows the ATP content of the culture.

Assay [2] concerns Hara (NRF2 pathway wild type cell line with low AKR1C3 expression). As to the kind of experiment: In vitro cell proliferation assay (CellTiter-Glo), Hara. The assay is classed as cell-based. The settings on record: 72 h; Hara cells, 3 days, CellTiter-Glo, top concentration 10 μM; read-out: HARA Qualified absolute AC50. In short, it runs like this: as §1

SMILES strings stand for the structures.

As to `Nc1ccc(CNC(=O)N2CCC3(CC2)CC(=O)c2cc(F)ccc2N3)cc1Cl` [Example 87, N-(4-amino-3-chlorobenzyl)-6′-fluoro-4′-oxo-3′,4′-dihydro-1′H-spiro[piperidine-4,2′-quinoline]-1-carboxamide], the half-maximal activity concentration (AC50) in assay [1] was 388 nM; in assay [2], greater than 10000 nM.

`Nc1ccc(CNC(=O)N2CCC3(CC2)CC(=O)c2cc(F)ccc2N3)cc1` [Example 89, N-(4-aminobenzyl)-6′-fluoro-4′-oxo-3′,4′-dihydro-1′H-spiro[piperidine-4,2′-quinoline]-1-carboxamide]: the AC50 in assay [1] is 436 nM; in assay [2] it was greater than 10000 nM.

`CN1c2ccc(F)cc2C(=O)CC12CCN(C(=O)NCc1ccc(F)c(NCCO)c1F)CC2` [Example 91, N-(2,4-difluoro-3-((2-hydroxyethyl)amino)benzyl)-6′-fluoro-1′-methyl-4′-oxo-3′,4′-dihydro-1′H-spiro[piperidine-4,2′-quinoline]-1-carboxamide]: the AC50 in assay [1] was 451 nM; in assay [2], greater than 10000 nM.

On to `CC(O)c1cc(CNC(=O)N2CCC3(CC2)CC(=O)c2cc(F)ccc2N3C)ccc1F` (stereo not drawn) [Example 92, 6′-fluoro-N-(4-fluoro-3-(1-hydroxyethyl)benzyl)-1′-methyl-4′-oxo-3′,4′-dihydro-1′H-spiro[piperidine-4,2′-quinoline]-1-carboxamide], for which the values for the AC50 in assay [1] and in assay [2] were 467 nM and greater than 10000 nM, respectively.

On to `Cn1ncc(Cl)c1CNC(=O)N1CCC2(CC1)CC(=O)c1cc(F)ccc1N2` [Example 93, N-((4-chloro-1-methyl-1H-pyrazol-5-yl)methyl)-6′-fluoro-4′-oxo-3′,4′-dihydro-1′H-spiro[piperidine-4,2′-quinoline]-1-carboxamide], for which the half-maximal activity concentration (AC50) was 5730 nM in assay [1] and greater than 10000 nM in assay [2].

With `C[C@@H](O)CNC(=O)c1cc(CNC(=O)N2CCC3(CC2)CC(=O)c2cc(F)ccc2N3C)ccc1F` [Example 94, (R)-6′-fluoro-N-(4-fluoro-3-((2-hydroxypropyl)carbamoyl)benzyl)-1′-methyl-4′-oxo-3′,4′-dihydro-1′H-spiro[piperidine-4,2′-quinoline]-1-carboxamide], the concentration at half-maximal activity (AC50) amounted to 471 nM in assay [1] and 9490 nM in assay [2].

Take `Nc1cc(CNC(=O)N2CCC3(CC2)CC(=O)c2cc(F)ccc2N3)ccc1F` [Example 95, N-(3-amino-4-fluorobenzyl)-6′-fluoro-4′-oxo-3′,4′-dihydro-1′H-spiro[piperidine-4,2′-quinoline]-1-carboxamide]: the AC50 was 485 nM in assay [1] and greater than 10000 nM in assay [2].

For the molecule `Nc1ccc(CNC(=O)N2CCC3(CC2)CC(=O)c2cc(F)ccc2N3)c(F)c1` [Example 98, N-(4-amino-2-fluorobenzyl)-6′-fluoro-4′-oxo-3′,4′-dihydro-1′H-spiro[piperidine-4,2′-quinoline]-1-carboxamide], the AC50 is 498 nM in assay [1] and greater than 10000 nM in assay [2].

`COCCNc1cc(CNC(=O)N2CCC3(CC2)CC(=O)c2cc(F)ccc2N3)ccc1F` [Example 99, 6′-fluoro-N-(4-fluoro-3-((2-methoxyethyl)amino)benzyl)-4′-oxo-3′,4′-dihydro-1′H-spiro[piperidine-4,2′-quinoline]-1-carboxamide]: the AC50 is 507 nM in assay [1] and greater than 10000 nM in assay [2].

For the molecule `O=C(NCC(F)(F)F)c1cc(CNC(=O)N2CCC3(CC2)CC(=O)c2cc(F)ccc2N3)ccc1F` [Example 101, 6′-fluoro-N-(4-fluoro-3-((2,2,2-trifluoroethyl)carbamoyl)benzyl)-4′-oxo-3′,4′-dihydro-1′H-spiro[piperidine-4,2′-quinoline]-1-carboxamide], the values for the AC50 in assay [1] and in assay [2] were 528 nM and greater than 10000 nM, respectively.

As for `COC1CN(c2cc(CNC(=O)N3CCC4(CC3)CC(=O)c3cc(F)ccc3N4)ccc2F)C1` [Example 102, 6′-fluoro-N-(4-fluoro-3-(3-methoxyazetidin-1-yl)benzyl)-4′-oxo-3′,4′-dihydro-1′H-spiro[piperidine-4,2′-quinoline]-1-carboxamide], the AC50 was 555 nM in assay [1] and 3720 nM in assay [2].

Take `NC(=O)Cc1cc(CNC(=O)N2CCC3(CC2)CC(=O)c2cc(F)ccc2N3)ccc1F` [Example 103, N-(3-(2-amino-2-oxoethyl)-4-fluorobenzyl)-6′-fluoro-4′-oxo-3′,4′-dihydro-1′Hspiro[piperidine-4,2′-quinoline]-1-carboxamide]: the AC50 in assay [1] was 558 nM; in assay [2] it was greater than 10000 nM.

Take `Nc1ccc(CNC(=O)N2CCC3(CC2)CC(=O)c2cc(F)ccc2N3)c(C(F)(F)F)c1` [Example 104, N-(4-amino-2-(trifluoromethyl)benzyl)-6′-fluoro-4′-oxo-3′,4′-dihydro-1′H-spiro[piperidine-4,2′-quinoline]-1-carboxamide]: the AC50 in assay [1] was 573 nM; in assay [2], greater than 10000 nM.

With `O=C(NC1COC1)c1cc(CNC(=O)N2CCC3(CC2)CC(=O)c2cc(F)ccc2N3)ccc1F` [Example 105, 6′-fluoro-N-(4-fluoro-3-(oxetan-3-ylcarbamoyl)benzyl)-4′-oxo-3′,4′-dihydro-1′H-spiro[piperidine-4,2′-quinoline]-1-carboxamide], the AC50 in assay [1] is 580 nM; in assay [2], greater than 10000 nM.

Consider `O=C1CC2(CCN(C(=O)NCc3cnoc3)CC2)Nc2ccc(F)cc21` [Example 107, 6′-fluoro-N-(isoxazol-4-ylmethyl)-4′-oxo-3′,4′-dihydro-1′H-spiro[piperidine-4,2′-quinoline]-1-carboxamide], for which the values for the AC50 in assay [1] and in assay [2] were 612 nM and greater than 10000 nM, respectively.

In the case of `O=C1CC2(CCN(C(=O)NCc3ccc(OC(F)F)c(F)c3)CC2)Nc2c(F)cc(F)cc21` [Example 108, N-(4-(difluoromethoxy)-3-fluorobenzyl)-6′,8′-difluoro-4′-oxo-3′,4′-dihydro-1′H-spiro[piperidine-4,2′-quinoline]-1-carboxamide], the AC50 in assay [1] was 646 nM; in assay [2], 3180 nM.

`NC(=O)c1c(F)ccc(CNC(=O)N2CCC3(CC2)CC(=O)c2cc(F)ccc2N3)c1F` [Example 109, N-(3-carbamoyl-2,4-difluorobenzyl)-6′-fluoro-4′-oxo-3′,4′-dihydro-1′H-spiro[piperidine-4,2′-quinoline]-1-carboxamide]: the AC50 was 690 nM in assay [1] and greater than 10000 nM in assay [2].

Take `Nc1ccc(CNC(=O)N2CCC3(CC2)CC(=O)c2cc(F)ccc2N3)c(Cl)c1` [Example 111, N-(4-amino-2-chlorobenzyl)-6′-fluoro-4′-oxo-3′,4′-dihydro-1′H-spiro[piperidine-4,2′-quinoline]-1-carboxamide]: the concentration at half-maximal activity (AC50) is 733 nM in assay [1] and greater than 10000 nM in assay [2].

As for `Nc1ccc(CNC(=O)N2CCC3(CC2)CC(=O)c2cc(F)ccc2N3)cc1C(F)(F)F` [Example 112, N-(4-amino-3-(trifluoromethyl)benzyl)-6′-fluoro-4′-oxo-3′,4′-dihydro-1′H-spiro[piperidine-4,2′-quinoline]-1-carboxamide], the AC50 was 783 nM in assay [1] and greater than 10000 nM in assay [2].

As to `COc1cc(F)ccc1CNC(=O)N1CCC2(CC1)CC(=O)c1cc(F)ccc1N2` [Example 114, 6′-fluoro-N-(4-fluoro-2-methoxybenzyl)-4′-oxo-3′,4′-dihydro-1′H-spiro[piperidine-4,2′-quinoline]-1-carboxamide], the values for the AC50 in assay [1] and in assay [2] were 913 nM and 4430 nM, respectively.

As for `COc1cc(CNC(=O)N2CCC3(CC2)CC(=O)c2cc(F)cc(F)c2N3)ccn1` [Example 115, 6′,8′-difluoro-N-((2-methoxypyridin-4-yl)methyl)-4′-oxo-3′,4′-dihydro-1′H-spiro[piperidine-4,2′-quinoline]-1-carboxamide], the AC50 in assay [1] was 930 nM; in assay [2], greater than 10000 nM.

For `Cc1cc(N)ccc1CNC(=O)N1CCC2(CC1)CC(=O)c1cc(F)ccc1N2` [Example 116, N-(4-amino-2-methylbenzyl)-6′-fluoro-4′-oxo-3′,4′-dihydro-1′H-spiro[piperidine-4,2′-quinoline]-1-carboxamide], the half-maximal activity concentration (AC50) in assay [1] was 935 nM; in assay [2], greater than 10000 nM.

With `C[C@H](O)CNC(=O)c1cc(CNC(=O)N2CCC3(CC2)CC(=O)c2cc(F)ccc2N3C)ccc1F` [Example 117, (S)-6′-fluoro-N-(4-fluoro-3-((2-hydroxypropyl)carbamoyl)benzyl)-1′-methyl-4′-oxo-3′,4′-dihydro-1′H-spiro[piperidine-4,2′-quinoline]-1-carboxamide], the AC50 in assay [1] was 956 nM; in assay [2], greater than 10000 nM.

Regarding `O=C1CC2(CCN(C(=O)NCc3ccon3)CC2)Nc2ccc(F)cc21` [Example 118, 6′-fluoro-N-(isoxazol-3-ylmethyl)-4′-oxo-3′,4′-dihydro-1′H-spiro[piperidine-4,2′-quinoline]-1-carboxamide], the AC50 was 1010 nM in assay [1] and greater than 10000 nM in assay [2].

Regarding `Cc1cc(CNC(=O)N2CCC3(CC2)CC(=O)c2cc(F)ccc2N3)ccc1N` [Example 119, N-(4-amino-3-methylbenzyl)-6′-fluoro-4′-oxo-3′,4′-dihydro-1′H-spiro[piperidine-4,2′-quinoline]-1-carboxamide], the AC50 in assay [1] is 1020 nM; in assay [2] it was greater than 10000 nM.

As to `O=C1CC2(CCN(C(=O)NCc3ccc4cc[nH]c4c3)CC2)Nc2ccc(F)cc21` [Example 120, N-((1H-indol-6-yl)methyl)-6′-fluoro-4′-oxo-3′,4′-dihydro-1′H-spiro[piperidine-4,2′-quinoline]-1-carboxamide], the AC50 in assay [1] was 1050 nM; in assay [2] it was greater than 10000 nM.

`Cc1ccc(CNC(=O)N2CCC3(CC2)CC(=O)c2cc(F)cc(F)c2N3)s1` [Example 123, 6′,8′-difluoro-N-((5-methylthiophen-2-yl)methyl)-4′-oxo-3′,4′-dihydro-1′H-spiro[piperidine-4,2′-quinoline]-1-carboxamide]: the results for the AC50 in assay [1] and in assay [2] were 1140 nM and 5390 nM, respectively.

The AC50 is the concentration giving half of the maximal activity seen.
